Where a SMILES comes first, the peptide text is derived from it. [ ]: non-standard residue; d: D form. The star is where a group is joined. NH(TEMPO-4-yl) = CC1(C)CC(N*)CC(C)(C)N1[O]; Orn = NCCC[C@H](N)C(=O)O; Cbz = O=C(OCc1ccccc1)*; Boc = CC(C)(C)OC(=O)*; X1 = CC1CCN=C(N*)S1
What was measured:
mouse embryonic cells [1] = experiment: EPR-based analysis of integration and reduction of nitroxide Gramicidin S-peptidyl conjugates in MECs; format: cell-based; conditions: 10 μM, MECs and mitochondria isolated from them
Experimental: Electron paramagnetic resonance (“EPR”) spectroscopy was used to monitor the cellular delivery of compounds 5a and 5b shown in FIG. 3 in mouse embryonic cells (“MEC”).
The following conditions were used during the EPR-based analysis of the integration and reduction of nitroxide Gramicidin S-peptidyl conjugates in MECs. The MECs at a concentration of 10 million MECs per mL were incubated with 10 μM of 4-AT and compound 5a, respectively. Recovered nitroxide radicals in whole cells, mitochondria, and cytosol fractions were resuspended in phosphate buffer saline (“PBS”) in the presence and absence, respectively, of 2 μM K3Fe(CN)6.

mouse embryonic cells [2] = experiment: Intracellular superoxide generation (DHE flow cytometry) in ActD-treated MECs; format: cell-based; conditions: 10 μM pretreatment, ActD 100 ng/mL
Experimental: Determination of intracellular superoxide radicals Oxidation-dependent fluorogenic dye, dihydroethidium (“DHE”, Molecular Probes) was used to evaluate intracellular production of superoxide radicals. DHE is cell permeable and, in the presence of superoxide, is oxidized to fluorescent ethidium which intercalates into DNA. The fluorescence of ethidium was measured using a FACscan (Becton-Dickinson, Rutherford, N.J.) flow cytometer, equipped with a 488-nm argon ion laser and supplied with the Cell Quest software. Mean fluorescence intensity from 10,000 cells were acquired using a 585-nm bandpass filter (FL-2 channel).

mouse embryonic cells [3] = experiment: ActD-induced apoptosis in MECs (PS externalization, caspase-3, DNA fragmentation); format: cell-based; design: protection against ActD-induced apoptosis: dose or concentration left out as unconfirmed; conditions: for DNA fragmentation / caspase-3 activation / number of annexin V-positive cells (PS externalization): 10 μM, ActD 100 ng/mL; for effect at concentrations in excess of 10 μM: PS externalization
Description: Cells that annexin V-positive and PI-negative were considered apoptotic.

[4] = tested on: mitochondria of 32D c13 hemopoietic cells; experiment: Mass spectrometry of conjugates in isolated mitochondria; format: cell-based, mouse; conditions: 100 μM, 2 h; for permeation of the mitochondrial membrane (mass spectrometry): 37° C.; for Fmole/10 μM mitochondrial protein: mouse
Experimental: An unconjugated and conjugated NOS antagonist, (AMT, 100 μM) and an unconjugated and conjugated nitroxide derivative (4-amino-TEMPO, 100 μM) were incubated for two hours at 37° C. with 32D c13 hemopoietic cells.
Following incubation, the cells were lysed and the mitochondria isolated for a mass spectrometry analysis where compounds isolated from mitochondria were identified as Na+ adducts. […] Thus, the targeting peptides successfully direct a NOS antagonist and a nitroxide to the mitochondria.
Quantitative mass spectrometry studies were used to compare the effectiveness of several AMT peptide conjugates in permeating the mitochondrial membrane, specifically XJB-5-234, XJB-5-133, XJB-5-241, and XJB-5-127. The Fmole/10 μM mitochondrial protein ratio provides a relative quantification of conjugate concentration at the target site.

[5] = tested on: irradiated uroepithelial cells; experiment: NO and peroxynitrite production in irradiated uroepithelial cells (microsensor); format: cell-based; conditions: AMT 10 μM, 4-amino-TEMPO 100 μM; 24 h after irradiation
Experimental: Further physiological studies were conducted to determine the effects of peptide-targeted AMT and 4-amino-TEMPO on NO and peroxynitrite production in irradiated uroepithelial cells. The cells were cultured in an 8-well slide chamber for 3 days and then microsensor measurements were taken 24 hours after irradiation.
In cells treated with high-dose conjugated 4-amin-TEMPO (100 μM), peroxynitrite production was decreased by approximately 4-fold.

[6] = comparison drugs; cited from earlier work
[7] = tested on: 32D cl 3 murine hematopoietic cells; experiment: Gamma-irradiation dose survival curves of 32D cl 3 cells (XJB-5-125, Tempol); format: cell-based, mouse
Description: FIG. 16 illustrates the effect of GS conjugated nitroxide, XJB-5-125, on gamma-irradiation dose survival curves of 32D cl 3 murine hematopoietic cells.

For `CC1(C)CC(N)CC(C)(C)N1[O]` [4-amino-TEMPO, reference compound], the “integration into cells and mitochondria (EPR signals of nitroxide radicals)” value (mouse embryonic cells [1]) was “did not effectively permeate cells or the mitochondria”, the intracellular superoxide generation (mouse embryonic cells [2]) was “no effect” and the “protection against ActD-induced apoptosis” value (mouse embryonic cells [3]; low concentrations) was “afforded no protection”. The “permeation of the mitochondrial membrane (mass spectrometry)” value [4] was “only permeate the mitochondrial membrane with the assistance of the attached GS-derived targeting sequence” and the “NO induced peroxynitrite formation” value [5] was “comparable amount of peroxynitrite”.

For `CC(C)C[C@@H](/C=C/[C@H](Cc1ccccc1)C(=O)N1CCC[C@H]1C(=O)N[C@H](C(=O)N[C@@H](CCCNC(=O)OCc1ccccc1)C(=O)NC1CC(C)(C)N([O])C(C)(C)C1)C(C)C)NC(=O)OC(C)(C)C` [Compound 5a], the “integration into cells and mitochondria (EPR signals of nitroxide radicals)” value (mouse embryonic cells [1]) was “triplet signals of nitroxide radicals were detected”, the intracellular superoxide generation (mouse embryonic cells [2]) was “completely inhibited” and the DNA fragmentation (mouse embryonic cells [3]) was “prevented DNA fragmentation”. For the same compound, the caspase-3 activation (mouse embryonic cells [3]) was “prevented caspase-3 activation”, the “number of annexin V-positive cells (PS externalization)” value (mouse embryonic cells [3]) was “reduced the number of annexin V-positive cells” and the “effect at concentrations in excess of 10 μM” value (mouse embryonic cells [3]) was “either less protective or exhibited cytotoxicity”.

For `CC(C)C[C@H](NC(=O)OC(C)(C)C)C(=O)N[C@H](Cc1ccccc1)C(=O)N1CCC[C@H]1C(=O)N[C@H](C(=O)N[C@@H](CCCNC(=O)OCc1ccccc1)C(=O)NC1CC(C)(C)N([O])C(C)(C)C1)C(C)C` [Compound 5b] (Boc-L[dF]PV[Orn](Cbz)-{NH(TEMPO-4-yl)}), the intracellular superoxide generation (mouse embryonic cells [2]) was “completely inhibited”, the DNA fragmentation (mouse embryonic cells [3]) was “prevented DNA fragmentation” and the caspase-3 activation (mouse embryonic cells [3]) was “prevented caspase-3 activation”. The “number of annexin V-positive cells (PS externalization)” value (mouse embryonic cells [3]) was “reduced the number of annexin V-positive cells” and the “effect at concentrations in excess of 10 μM” value (mouse embryonic cells [3]) was “either less protective or exhibited cytotoxicity”.

For `COc1ccc2c(c1)c(CC(=O)O)c(C)n2C(=O)c1ccc(Cl)cc1` [Indomethecin], the “log Ko/w” value [6] is given as 4.23.

With `CC1(C)CC(O)CC(C)(C)N1[O]` [TEMPOL, 4-hydroxy-2,2,6,6-tetramethylpiperidine-N-oxyl] the “n (shoulder on the survival curve)” value [7] was 5.82 and the Do ([7]; vs 0.797 Gy for 32D cl 3 cells alone) was 1.209 Gy.

In the case of `CC(C)C[C@H](NC(=O)OC(C)(C)C)C(=O)N[C@H](Cc1ccccc1)C(=O)N1CCC[C@H]1C(=O)N[C@H](C(=O)N[C@@H](CCCNC(=O)OCc1ccccc1)C(=O)NC1=NCCC(C)S1)C(C)C` (stereo partly drawn) [XJB-5-127, Boc-Leu-^DPhe-Pro-Val-Orn(Cbz)-AMT] (Boc-L[dF]PV[Orn](Cbz)-X1), the “Fmole/10 μM mitochondrial protein” value [4] is reported as 50.8 Fmole/10 μM mitochondrial protein.

With `CC(C)C[C@@H](/C=C/[C@H](Cc1ccccc1)C(=O)N1CCC[C@H]1C(=O)N[C@H](C(=O)N[C@@H](CCCNC(=O)OCc1ccccc1)C(=O)NC1=NCCC(C)S1)C(C)C)NC(=O)OC(C)(C)C` (stereo partly drawn) [XJB-5-133, Boc-Leu-ψ[(E)-CH═CH]-^DPhe-Pro-Val-Orn(Cbz)-AMT] the “Fmole/10 μM mitochondrial protein” value [4] was 89.8 Fmole/10 μM mitochondrial protein.

For `CC(C)C[C@@H](/C=C/[C@H](Cc1ccccc1)C(=O)NC1=NCCC(C)S1)NC(=O)OC(C)(C)C` (stereo partly drawn) [XJB-5-234, Boc-Leu-ψ[(E)-CH═CH]-^DPhe-AMT], the “Fmole/10 μM mitochondrial protein” value [4] was 1.45 Fmole/10 μM mitochondrial protein.

For `C/C(=C\[C@H](Cc1ccccc1)C(=O)N1CCC[C@H]1C(=O)N[C@H](C(=O)N[C@@H](CCCNC(=O)OCc1ccccc1)C(=O)NC1=NCCC(C)S1)C(C)C)[C@H](CC(C)C)NC(=O)OC(C)(C)C` (stereo partly drawn) [XJB-5-241, Boc-Leu-ψ[(E)-C(CH3)═CH]^DPhe-Pro-Val-Orn(Cbz)-AMT], the “Fmole/10 μM mitochondrial protein” value [4] was 103.3 Fmole/10 μM mitochondrial protein.

For `Clc1ccccc1C(c1ccccc1)(c1ccccc1)n1ccnc1` [clotrimazole], the “log Ko/w” value [6] is given as 6.27.

For `CC(=O)N1CCN(c2ccc(OCC3COC(Cn4ccnc4)(c4ccc(Cl)cc4Cl)O3)cc2)CC1` (stereo not drawn) [ketaconazole], the “log Ko/w” value [6] is listed as 4.34.

In the case of `CC1CCN=C(N)S1` (stereo not drawn) [unconjugated AMT, 2-amino-6-methyl-thiazine, reference compound], the “permeation of the mitochondrial membrane (mass spectrometry)” value [4] is reported as “do not enter the mitochondria membrane in substantial quantities” and the “NO induced peroxynitrite formation” value [5] is reported as “comparable amount of peroxynitrite”.

Source: US8822541B2, “Use of targeted nitroxide agents in mitigating or treating radiation injury” (University of Pittsburgh—Of the Commonwealth System of …, priority 2008, dated 2014)
